In patent US8389514B2, “Cyanoaminoquinolones and tetrazoloaminoquinolones as GSK-3 inhibitors” (Kyorin Pharmaceutical Co., Ltd., priority 2007, dated 2013):

Columns and labels:
S. aureus Smith = assay: Antibacterial activity (MIC), S. aureus Smith; assay type: cell-based; conditions: Staphylococcus aureus
Source text: (§1) As used herein, a minimum inhibitory concentration (MIC) for bacterial growth assay is the lowest level of a compound needed to cause an inhibition to bacterial growth in culture medium. In certain embodiments, the antibacterial activity of compounds herein, measured as MIC.
(§2) In certain embodiments, GSK3 inhibitors provided herein are substantially free of antibacterial activity or having very low antibacterial activity. The antibacterial activity can be measured by methods known in the art by estimating a minimum inhibitory concentration (MIC) for test compounds. A MIC is the lowest level of a compound needed to cause an inhibition to bacterial growth in a culture medium. […] (Clinical and Laboratory Standards Institute. Methods for Dilution Antimicrobial Susceptibility Tests for Bacteria That Grow Aerobically; Approved Standard-Sixth Edition: CLSI document […]. CLSI, Wayne, Pa. (2003))
(§3) Antibacterial activity for E. coli, ATCC8739 and S. aures Smith is expressed as MIC (μM).

E. coli, ATCC8739 = assay: Antibacterial activity (MIC), E. coli; assay type: cell-based; conditions: Escherichia coli
Source text: as §1, §2, §3

[1] = molecular target: T1, recombinant full-length human GSK3β (Homo sapiens, UniProt P49841); assay: GSK3β enzyme cell free luciferase-coupled kinase assay; assay type: biochemical; conditions: 5 μM ATP
T1 construct: recombinant full-length human GSK3β (Upstate); purchased Upstate
Description: All coupled-luciferase assays are performed by using a brief incubation with firefly luciferase (Promega) after completion of the kinase assay. KinaseGlo Plus is used for reading kinase reactions with ATP>10 μM, KinaseGlo for ATP<10 μM. The assay volume in a 384-well plate for the kinase reaction is 30 microliters.
10-25 ng of recombinant full-length human GSK3β (Upstate) is incubated in the presence or absence of compound at varying concentrations for 1 hour at 30 degrees Celsius in 20 mM MOPS, pH 7.0, 10 mM magnesium acetate, 0.2 mM EDTA, 2 mM EGTA, 30 mM magnesium chloride, 62.5 μM phospho-glycogen synthase peptide-2, 5 μM ATP, 10 mM β-glycerol phosphate, 1 mM sodium orthovanadate and 1 mM dithiothreitol. Proceed to KinaseGlo luciferase reaction (see below).
Following the completion of the kinase reaction an equal volume of KinaseGlo or KinaseGlo Plus luciferase reagent (Promega) is added and the luminescence read using a luminescence plate reader within 5-10 minutes. Compound activity is expressed as % inhibition relative to maximal inhibition observed at the maximal dose and IC50 values then calculated using curve fitting software (GraphPad Prizm).

T1 sequence (P49841 whole entry): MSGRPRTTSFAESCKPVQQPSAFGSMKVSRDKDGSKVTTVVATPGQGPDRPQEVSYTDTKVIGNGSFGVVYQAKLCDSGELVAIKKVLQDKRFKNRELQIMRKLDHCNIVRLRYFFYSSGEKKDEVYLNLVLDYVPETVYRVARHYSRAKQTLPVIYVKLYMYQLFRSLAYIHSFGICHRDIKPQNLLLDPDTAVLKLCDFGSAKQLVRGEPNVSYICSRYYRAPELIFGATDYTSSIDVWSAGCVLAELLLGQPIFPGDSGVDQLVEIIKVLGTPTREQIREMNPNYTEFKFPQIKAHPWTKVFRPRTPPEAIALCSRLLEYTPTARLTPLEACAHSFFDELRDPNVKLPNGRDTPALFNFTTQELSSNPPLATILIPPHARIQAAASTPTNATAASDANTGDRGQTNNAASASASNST

Compound | MIC (S. aureus Smith) [µM] | MIC (E. coli, ATCC8739) [µM] | IC50 [1] [nM]
C[C@H]1COc2c(NCCCn3ccnc3)c(F)c(N)c3c(=O)c(-c4nnn[nH]4)cn1c23 | > 257 | > 257 | 10 to 100
CCN(CCCNc1c(F)c(N)c2c(=O)c(-c3nnn[nH]3)cn3c2c1OC[C@@H]3C)c1ccccc1 | – | – | 10 to 100
C[C@H]1COc2c(NCCCc3ccccn3)c(F)c(N)c3c(=O)c(-c4nnn[nH]4)cn1c23 | – | – | < 10
